# Experiments:
# insect cells = assay: Transfection of insect cells with DOTAP-based reagent; details: insect cell lines grown in vitro (e.g., Sf9, Sf21, High Five, S2)
# Excerpt: Addition of detergents increases the efficiency of a transfection reagent. However, the optimal type and amount of detergent vary for different transfection reagents and target cell types. […] In a typical transfection reagent, the DOTAP is mixed with a neutral lipid (e.g., DOPE, cholesterol) to form a liposome. […] Optimal enhancement with DLPE was obtained over a range of 1-10% (weight percentage of total composition of DOTAP, DOPE, and neutral lipid).
# [1] = background statement on prior art; cited from earlier work
# Sf9 cells = assay: Transfection of Sf9 cells, β-galactosidase reporter (Examples 3, 4); format: cell-based, Spodoptera frugiperda; details: for Efficiency of detergent added to DOTAP/neutral lipid reagent, in words: transfecting Sf9 cells
# Procedure: Sf21 (Spodoptera frugiperda pupal ovarian cells) cells were maintained in TC-100 medium, and High Five or BTI-TN-5BI-4 (Trichoplusia ni embryonic ovarian cells) cells were maintained in Ex-Cell medium at 27° C. in an atmosphere of 5% CO2 in air. S2 (Drosophila melanogaster embryonic cells) were maintained in Shields and Sang M3 medium supplemented with 5% FCS at 25° C. The cells were seeded in a 6-well plate (35 mm culture dishes) 24 h before the transfection at 70% confluence. Before transfection, the cells were washed once or twice with serum-free medium, and placed in 2 ml serum-free medium per 35-mm dish. The liposomes were diluted in 0.15 ml of serum-free medium. Following a 5 minute incubation at room temperature, two μg of plasmid DNA (containing the luciferase or β-galactosidase reporter genes described below) was added, followed by a 5 minute incubation at room temperature prior to being added to the cells in the culture dish. The cells were incubated under the appropriate conditions. After four hours, the transfection mixture was removed and replaced with 2 ml of regular culture medium. […]
# The firefly luciferase and E. coli β-galactosidase reporter genes were used to determine the efficiency of DNA transfer quantitatively. […]
# For determination of luciferase activity, cells were lysed by the addition of 200 μl of lysis buffer (0.1% Triton X-100, 0.1M K-phosphate, 1 mM DTT, pH 7.8). Ten μl of the cellular extract were analyzed for luciferase activity, using the Enhanced Luciferase Assay kit (Mirus). For determination of β-galactosidase activity, the cells were lysed by the addition of 200 μl of lysis buffer (0.1% Triton X-100, 0.1M K-phosphate, 1 mM DTT, pH 7.8). β-Galactosidase activity was determined using a chemiluminescent assay (Tropix).
# Two μg of the β-galactosidase expression vector pIE1HR5/LacZ were transfected into Sf9 cells using TRANSIT-INSECTA, Reagent C (CELLFECTIN from Life Technologies) and Reagent I (INSECTIN-PLUS from Invitrogen). […] Reporter gene expression was determined after 2 days using a chemiluminescent assay (Tropix). […]
structure (smiles),measurement,setting,value
"CCCCCCCC/C=C\CCCCCCCC(=O)OCC(C[N+](C)(C)C)OC(=O)CCCCCCC/C=C\CCCCCCCC (centres unmarked) [DOTAP, 1,2-bis(oleoyloxy)-3-(4′-trimethylammonio)propane]","Transfection efficiency for insect cells, in words",insect cells,efficient transfection reagent
CCCCCCCCCCCCCCCCCCN [Stearylamine],"cytotoxicity, in words",[1],great cytotoxicity
"CCCCCCCCCCCC(=O)OC[C@H](COP(=O)([O-])OCC[N+](C)(C)C)OC(=O)CCCCCCCCCCC [DLPC, dilauroylphosphatidylcholine]","Efficiency of detergent added to DOTAP/neutral lipid reagent, in words",Sf9 cells,more efficient than addition of CHAPS
"CCCCCCCCCCCC(=O)OC[C@H](COP(=O)(O)OCCN)OC(=O)CCCCCCCCCCC [DLPE, dilauroyl phosphatidylethanolamine]","Efficiency of detergent added to DOTAP/neutral lipid reagent, in words",Sf9 cells,more efficient than addition of CHAPS
same,Range of DLPE giving optimal enhancement of transfection efficiency,"Sf9 cells; weight percentage of total composition of DOTAP, DOPE, and neutral lipid",1-10%
